# Laboratory results taken from ChEMBL document CHEMBL5321277, “Discovery and Mechanism Study of SARS-CoV-2 3C-like Protease Inhibitors with a New Reactive Group” (J Med Chem, 2023).
# Tests used:
# [1] = target: T1, Replicase polyprotein 1ab (Severe acute respiratory syndrome coronavirus 2, UniProt P0DTD1); test: Inhibition of N-terminal His6-tagged recombinant full length SARS-CoV-2 3CLpro expressed in Escherichia coli BL21(DE3) using MCA-AVLQSGFR-Lys(Dnp)-Lys-NH2 as fluorogenic substrate preincubated with compound for 10 mins followed by substrate addition by FRET assay
# [2] = target: T1, Replicase polyprotein 1ab; test: Inhibition of N-terminal His6-tagged recombinant full length SARS-CoV-2 3CLpro expressed in Escherichia coli BL21(DE3) assessed as inhibition constant using MCA-AVLQSGFR-Lys(Dnp)-Lys-NH2 as fluorogenic substrate incubated for 3 hrs by FRET assay
# Cathepsin B = Cathepsin B (Homo sapiens, UniProt P07858); test: Inhibition of Cathepsin B (unknown origin) using Z-RR-AMC as fluorogenic substrate preincubated for 10 mins followed by substrate addition and measured for 10 mins by fluorescence based assay
# Procathepsin L [3] = target: T2, Procathepsin L (Homo sapiens, UniProt P07711); test: Inhibition of Cathepsin L (unknown origin) using Z-VVR-AMC as fluorogenic substrate preincubated for 10 mins followed by substrate addition and measured for 10 mins by fluorescence based assay
# Target sequence in this assay (P07711 whole entry): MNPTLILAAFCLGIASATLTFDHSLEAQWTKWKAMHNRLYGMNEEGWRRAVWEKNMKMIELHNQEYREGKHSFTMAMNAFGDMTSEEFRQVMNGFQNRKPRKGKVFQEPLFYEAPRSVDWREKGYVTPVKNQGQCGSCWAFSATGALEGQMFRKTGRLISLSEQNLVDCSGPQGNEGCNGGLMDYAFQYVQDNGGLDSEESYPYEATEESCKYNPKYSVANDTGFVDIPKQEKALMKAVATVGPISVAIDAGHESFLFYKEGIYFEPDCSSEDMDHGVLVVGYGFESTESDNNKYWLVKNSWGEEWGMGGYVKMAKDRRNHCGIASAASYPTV
# [4] = target: Replicase polyprotein 1ab (Severe acute respiratory syndrome coronavirus 2) (UniProt P0DTD1); test: Inhibition of N-terminal His6-tagged recombinant full length SARS-CoV-2 3CLpro expressed in Escherichia coli BL21(DE3) assessed as Kobs, ratio of Kinact/Ki using MCA-AVLQSGFR-Lys(Dnp)-Lys-NH2 as fluorogenic substrate incubated for 3 hrs by FRET assay
# Caspase-6 = target: T3, Caspase-6 (Homo sapiens, UniProt P55212); test: Inhibition of Caspase-6 (unknown origin)
# T3 sequence (P55212 whole entry): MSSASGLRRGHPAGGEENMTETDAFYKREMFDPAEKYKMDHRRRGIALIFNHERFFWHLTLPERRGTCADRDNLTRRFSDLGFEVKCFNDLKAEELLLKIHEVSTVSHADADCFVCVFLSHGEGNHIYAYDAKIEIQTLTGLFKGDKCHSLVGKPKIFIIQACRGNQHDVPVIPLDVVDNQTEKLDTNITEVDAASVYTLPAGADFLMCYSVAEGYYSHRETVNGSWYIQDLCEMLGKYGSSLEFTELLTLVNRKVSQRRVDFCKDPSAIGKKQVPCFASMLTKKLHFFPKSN
# [5] = target: T1, Replicase polyprotein 1ab; test: Inhibition of SARS-CoV-2 PLpro using RLRGG-AMC as fluorogenic substrate preincubated with compound for 30 mins followed by substrate addition by fluorescence based microplate reader assay
# Chymotrypsin = Chymotrypsin (Homo sapiens, UniProt Q99895+P17538+P40313+Q6GPI1); test: Inhibition of Chymotrypsin (unknown origin) using N-succinyl-AAPF-AMC as fluorogenic substrate preincubated for 10 mins followed by substrate addition and measured for 10 mins by fluorescence based assay; assay type: protein assay
# Cathepsin G = target: T4, Cathepsin G (Homo sapiens, UniProt P08311); test: Inhibition of Cathepsin G (unknown origin) measured for 1 to 2 hrs by fluorescence based assay
# T4 sequence (P08311 whole entry): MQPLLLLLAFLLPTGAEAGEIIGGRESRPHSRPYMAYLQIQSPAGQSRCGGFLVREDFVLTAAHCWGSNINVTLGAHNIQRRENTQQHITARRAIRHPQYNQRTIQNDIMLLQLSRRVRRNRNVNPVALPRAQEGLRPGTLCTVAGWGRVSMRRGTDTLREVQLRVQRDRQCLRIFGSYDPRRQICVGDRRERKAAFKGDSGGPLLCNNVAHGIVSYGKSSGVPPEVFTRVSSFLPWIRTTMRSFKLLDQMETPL
# SARS-CoV-2 = test: microbe, parasite or virus in culture; details: Severe acute respiratory syndrome coronavirus 2, B1.617.2 (Delta), Vero C1008, 24 h
# Procathepsin L [6] = target: T2, Procathepsin L; test: Inhibition of Cathepsin L (unknown origin) using Z-VVR-AMC as fluorogenic substrate at 20 uM preincubated for 10 mins followed by substrate addition and measured for 10 mins by fluorescence based assay; details: time 20.0 min
# Target sequence in this assay (P07711 114-333 limits assumed): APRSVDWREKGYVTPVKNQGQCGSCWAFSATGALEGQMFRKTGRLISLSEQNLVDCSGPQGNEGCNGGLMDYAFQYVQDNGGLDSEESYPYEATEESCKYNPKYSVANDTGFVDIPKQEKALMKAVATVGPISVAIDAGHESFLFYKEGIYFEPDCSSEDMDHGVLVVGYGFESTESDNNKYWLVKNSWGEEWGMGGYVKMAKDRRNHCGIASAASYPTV
compound,measurement,setting,value
CC(=O)c1ccc2c(c1)N(C(=O)CSC#N)c1ccccc1S2,IC50,[1],1.06 µM
N#CSCC(=O)N1c2ccccc2Sc2ccc(C#N)cc21,Ki,[2],18.1 µM
same,IC50,Cathepsin B,> 50 µM
same,IC50,Procathepsin L [3],> 100 µM
same,IC50,[1],0.322 µM
same,Kobs,[4],1670 M⁻¹ s⁻¹
same,IC50,Caspase-6,> 50 µM
same,IC50,[5],> 100 µM
same,IC50,Chymotrypsin,> 100 µM
same,IC50,Cathepsin G,> 50 µM
N#CSCC(=O)N1c2ccccc2Sc2ccc(Cl)cc21,IC50,[1],0.524 µM
N#CSCC(=O)N1c2ccccc2Oc2ccccc21,IC50,[1],3.96 µM
same,EC50,SARS-CoV-2,5.38 µM
N#CSCC(=O)N1c2ccccc2CCc2ccc(Cl)cc21,Ki,[2],24.9 µM
same,IC50,[1],0.478 µM
same,EC50,SARS-CoV-2,2.5 µM
CCSc1ccc2c(c1)N(C(=O)CSC#N)c1ccccc1S2,IC50,[1],2.64 µM
N#CSCC(=O)N1c2ccccc2Sc2ccc(C(F)(F)F)cc21,IC50,[1],4.6 µM
same,EC50,SARS-CoV-2,3.14 µM
CCC(=O)c1ccc2c(c1)N(C(=O)CSC#N)c1ccccc1S2,IC50,[1],3.33 µM
COc1ccc2c(c1)N(C(=O)CSC#N)c1ccccc1S2,IC50,[1],2.9 µM
N#CSCC(=O)N1c2ccccc2Sc2ccccc21,IC50,[1],1.85 µM
N#CSCC(=O)N1c2ccccc2CCc2ccccc21,Ki,[2],43.6 µM
same,IC50,Cathepsin B,> 50 µM
same,IC50,[1],2.21 µM
same,Kobs,[4],327 M⁻¹ s⁻¹
same,IC50,Caspase-6,> 50 µM
same,IC50,[5],> 100 µM
same,IC50,Chymotrypsin,> 100 µM
same,inhibition,Procathepsin L [6],70.3%
same,IC50,Cathepsin G,> 50 µM
